Source: patent US20170008888A1 (KYORIN PHARMACEUTICAL CO., LTD., priority 2014, published 2017)
Where two headings read alike, the source gives them in different places.

Legend:
Type in all cases: binding
[1] = test system: ABL or ARG; experiment: Probe-based (AX9989) kinase profiling in Jurkat lysate: ABL or ARG
Method in brief: (§1)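 Compounds were pre-incubated for 15 min at room temperature with gel-filtered Jurkat cell lysate supplemented with 20 mM MnCl2, after which the acyl phosphate ATP probe AX9989 was added at 5 μM final. Labeled active-site peptides were enriched after tryptic digestion and measured by LC/MS, with percent inhibition taken relative to samples without compound.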

[2] = test system: AMPKa1 or AMPKa2; experiment: Probe-based (AX9989) kinase profiling in Jurkat lysate: AMPKa1 or AMPKa2
Method in brief: as §1

[3] = molecular target: T1, ERK5 (Homo sapiens, UniProt Q13164); experiment: Probe-based (AX9989 acyl phosphate ATP probe) kinase profiling in Jurkat lysate: ERK5; details: for IC50: Jurkat lysate
T1 construct: screened for activity against several kinases in Jurkat cells; endogenous in cells; host or cells: Jurkat cell lysate
T1 sequence (Q13164 whole entry): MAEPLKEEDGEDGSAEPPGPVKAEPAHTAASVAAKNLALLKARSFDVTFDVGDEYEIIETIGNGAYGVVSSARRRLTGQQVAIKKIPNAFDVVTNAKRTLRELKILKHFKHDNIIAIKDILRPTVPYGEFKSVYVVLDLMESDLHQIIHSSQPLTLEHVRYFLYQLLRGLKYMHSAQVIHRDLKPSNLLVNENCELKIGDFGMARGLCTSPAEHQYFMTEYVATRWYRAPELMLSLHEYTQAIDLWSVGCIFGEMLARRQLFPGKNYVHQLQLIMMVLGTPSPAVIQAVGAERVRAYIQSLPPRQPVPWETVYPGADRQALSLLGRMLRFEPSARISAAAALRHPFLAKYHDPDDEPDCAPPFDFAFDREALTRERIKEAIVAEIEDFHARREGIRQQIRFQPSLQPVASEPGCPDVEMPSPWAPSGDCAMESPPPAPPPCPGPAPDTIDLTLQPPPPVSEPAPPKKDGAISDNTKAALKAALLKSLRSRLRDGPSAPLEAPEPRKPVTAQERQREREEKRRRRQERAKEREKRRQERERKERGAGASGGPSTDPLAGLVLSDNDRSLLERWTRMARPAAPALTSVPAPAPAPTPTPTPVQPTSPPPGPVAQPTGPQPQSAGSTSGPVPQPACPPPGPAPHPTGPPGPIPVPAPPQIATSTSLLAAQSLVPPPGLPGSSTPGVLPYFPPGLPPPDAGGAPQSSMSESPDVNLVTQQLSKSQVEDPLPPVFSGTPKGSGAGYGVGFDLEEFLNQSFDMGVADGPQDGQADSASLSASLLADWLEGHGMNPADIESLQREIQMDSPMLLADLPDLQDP
Method in brief: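 Gel-filtered Jurkat lysate (5 mg/ml, 20 mM MnCl2) preincubated 15 min at room temperature with compound, then labelled with 5 μM AX9989 acyl phosphate ATP probe. Probe-labelled ERK5 active-site peptides quantified by LC/MS after trypsin digestion and streptavidin capture; IC50 calculated from percent inhibition at the screening concentration.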

[4] = molecular target: T2, AurA (Homo sapiens, UniProt O14965); experiment: Probe-based (AX9989) kinase profiling in Jurkat lysate: AurA
T2 construct: screened for activity against several kinases in Jurkat cells; endogenous in cells; host or cells: Jurkat cell lysate
T2 sequence (O14965 1-403): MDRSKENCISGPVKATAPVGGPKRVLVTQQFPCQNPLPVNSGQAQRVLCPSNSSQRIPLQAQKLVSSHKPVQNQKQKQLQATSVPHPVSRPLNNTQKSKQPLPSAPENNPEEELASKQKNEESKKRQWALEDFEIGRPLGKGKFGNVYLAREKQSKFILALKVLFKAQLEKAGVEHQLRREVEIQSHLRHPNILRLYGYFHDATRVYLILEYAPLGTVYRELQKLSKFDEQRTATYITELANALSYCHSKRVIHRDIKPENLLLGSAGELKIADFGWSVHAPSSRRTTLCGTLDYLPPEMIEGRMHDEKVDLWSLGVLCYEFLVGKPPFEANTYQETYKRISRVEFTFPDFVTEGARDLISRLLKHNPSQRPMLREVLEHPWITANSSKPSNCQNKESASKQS
Method in brief: as §1

[5] = molecular target: T3, ACK (Homo sapiens, UniProt Q07912); experiment: Probe-based (AX9989) kinase profiling in Jurkat lysate: ACK
T3 construct: screened for activity against several kinases in Jurkat cells; endogenous in cells; host or cells: Jurkat cell lysate
T3 sequence (Q07912 whole entry): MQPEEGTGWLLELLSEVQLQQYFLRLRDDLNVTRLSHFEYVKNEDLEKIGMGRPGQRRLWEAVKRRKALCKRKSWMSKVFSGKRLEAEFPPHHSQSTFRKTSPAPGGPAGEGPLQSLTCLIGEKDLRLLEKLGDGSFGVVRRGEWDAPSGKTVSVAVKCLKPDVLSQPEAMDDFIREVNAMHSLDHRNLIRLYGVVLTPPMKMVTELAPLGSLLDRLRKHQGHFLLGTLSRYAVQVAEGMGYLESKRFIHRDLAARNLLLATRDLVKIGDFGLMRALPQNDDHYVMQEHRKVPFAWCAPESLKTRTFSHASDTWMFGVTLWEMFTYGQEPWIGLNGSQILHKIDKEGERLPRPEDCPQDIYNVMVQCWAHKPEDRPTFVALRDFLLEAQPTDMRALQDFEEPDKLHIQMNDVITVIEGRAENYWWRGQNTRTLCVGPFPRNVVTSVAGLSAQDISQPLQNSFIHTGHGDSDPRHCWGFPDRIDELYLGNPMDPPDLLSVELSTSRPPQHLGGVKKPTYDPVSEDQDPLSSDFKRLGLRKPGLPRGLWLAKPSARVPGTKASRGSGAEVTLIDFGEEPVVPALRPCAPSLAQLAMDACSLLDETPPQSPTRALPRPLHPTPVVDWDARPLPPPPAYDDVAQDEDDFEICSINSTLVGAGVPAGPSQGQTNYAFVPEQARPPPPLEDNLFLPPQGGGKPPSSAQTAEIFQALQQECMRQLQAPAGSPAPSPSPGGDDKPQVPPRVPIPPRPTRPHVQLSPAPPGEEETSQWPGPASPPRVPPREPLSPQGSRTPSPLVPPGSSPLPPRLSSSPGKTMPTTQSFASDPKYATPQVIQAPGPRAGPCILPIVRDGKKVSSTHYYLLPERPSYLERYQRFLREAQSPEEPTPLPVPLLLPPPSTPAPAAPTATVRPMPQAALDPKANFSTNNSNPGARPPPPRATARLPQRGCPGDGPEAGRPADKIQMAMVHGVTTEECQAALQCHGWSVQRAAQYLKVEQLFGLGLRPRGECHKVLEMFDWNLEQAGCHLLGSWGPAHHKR
Method in brief: as §1

[6] = molecular target: T4, JAK1 (Homo sapiens, UniProt P23458); experiment: Probe-based (AX9989) kinase profiling in Jurkat lysate: JAK1
T4 construct: screened for activity against several kinases in Jurkat cells; endogenous in cells; host or cells: Jurkat cell lysate
T4 sequence (P23458 whole entry): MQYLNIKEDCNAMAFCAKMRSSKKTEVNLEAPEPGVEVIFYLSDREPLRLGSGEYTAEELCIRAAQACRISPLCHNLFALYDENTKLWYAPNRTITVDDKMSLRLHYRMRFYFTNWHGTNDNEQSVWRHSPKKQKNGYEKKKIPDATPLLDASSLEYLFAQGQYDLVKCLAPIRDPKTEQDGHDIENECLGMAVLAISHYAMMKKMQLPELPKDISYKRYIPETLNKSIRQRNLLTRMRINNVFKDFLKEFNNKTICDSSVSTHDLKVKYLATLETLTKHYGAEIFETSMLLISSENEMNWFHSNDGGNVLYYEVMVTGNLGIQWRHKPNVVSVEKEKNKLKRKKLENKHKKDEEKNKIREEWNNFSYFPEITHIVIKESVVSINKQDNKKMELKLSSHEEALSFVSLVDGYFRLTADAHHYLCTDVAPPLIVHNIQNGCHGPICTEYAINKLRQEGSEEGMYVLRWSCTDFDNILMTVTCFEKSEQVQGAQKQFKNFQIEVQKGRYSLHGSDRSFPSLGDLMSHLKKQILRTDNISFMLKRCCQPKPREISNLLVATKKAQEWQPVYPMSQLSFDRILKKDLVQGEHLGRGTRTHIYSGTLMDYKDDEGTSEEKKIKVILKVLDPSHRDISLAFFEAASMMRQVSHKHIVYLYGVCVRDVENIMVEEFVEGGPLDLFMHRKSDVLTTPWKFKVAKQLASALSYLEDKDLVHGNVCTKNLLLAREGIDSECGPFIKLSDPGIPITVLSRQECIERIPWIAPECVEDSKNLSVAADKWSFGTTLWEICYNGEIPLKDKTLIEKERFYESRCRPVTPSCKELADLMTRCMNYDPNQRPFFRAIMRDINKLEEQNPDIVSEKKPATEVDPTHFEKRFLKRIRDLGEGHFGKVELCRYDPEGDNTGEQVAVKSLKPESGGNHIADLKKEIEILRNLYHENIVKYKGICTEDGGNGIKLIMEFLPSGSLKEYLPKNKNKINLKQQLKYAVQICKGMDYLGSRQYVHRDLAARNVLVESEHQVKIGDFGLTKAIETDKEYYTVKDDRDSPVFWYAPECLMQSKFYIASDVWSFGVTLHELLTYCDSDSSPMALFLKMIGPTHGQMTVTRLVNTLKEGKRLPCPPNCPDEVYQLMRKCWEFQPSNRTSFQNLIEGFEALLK
Method in brief: as §1

[7] = molecular target: T5, BRD4 bromodomain domain I [BRD4(1)] (Homo sapiens, UniProt O60885); experiment: BRD4 bromodomain domain 1 inhibition assay (TR-FRET); details: screening concentration 10 μM
T5 construct: BRD4 bromodomain domain I [BRD4(1)]; purchased Cayman Chemicals
Experimental: The inhibitory activity of test compounds on the bromodomain, BRD4 bromodomain domain I [BRD4(1)], were determined via TR-FRET after a slight modification of the manufacturer's protocol (Cayman Chemicals, Ann Arbor, Mich.). Briefly, compounds were diluted to a 20× ([…]) concentration in DMSO. 100 nL of 20× compounds were then dry stamped into triplicate wells of black, low volume 384 well plates (Aurora Biotechnologies, Carlsbad, Calif.) using the Mosquito liquid handler (TPP Labtech, Melbourn, UK). 20× compounds were then diluted to a 4× (40 μM) concentration in Assay Buffer to result in 2% DMSO content. […] JQ1 at 10 μM or 0.5% DMSO final concentrations were used as the positive and negative controls, respectively, to set the assay window. The fluorescence was read in a time-resolved format on the Biotec Synergy 2 plate reader by exciting the signal at 340 nm and reading emissions at 620 and 670, using a 100 μs delay and 200 μs read window. […] Briefly, TR-FRET ratio values were normalized to the average TR-FRET ratio value given by 10 μM JQ1. […]

[8] = test system: AurB or AurC; experiment: Probe-based (AX9989) kinase profiling in Jurkat lysate: AurB or AurC
Method in brief: as §1

[9] = molecular target: T6, TAO2 (Homo sapiens, UniProt Q9UL54); experiment: Probe-based (AX9989) kinase profiling in Jurkat lysate: TAO2
T6 construct: screened for activity against several kinases in Jurkat cells; endogenous in cells; host or cells: Jurkat cell lysate
T6 sequence (Q9UL54 1-1235): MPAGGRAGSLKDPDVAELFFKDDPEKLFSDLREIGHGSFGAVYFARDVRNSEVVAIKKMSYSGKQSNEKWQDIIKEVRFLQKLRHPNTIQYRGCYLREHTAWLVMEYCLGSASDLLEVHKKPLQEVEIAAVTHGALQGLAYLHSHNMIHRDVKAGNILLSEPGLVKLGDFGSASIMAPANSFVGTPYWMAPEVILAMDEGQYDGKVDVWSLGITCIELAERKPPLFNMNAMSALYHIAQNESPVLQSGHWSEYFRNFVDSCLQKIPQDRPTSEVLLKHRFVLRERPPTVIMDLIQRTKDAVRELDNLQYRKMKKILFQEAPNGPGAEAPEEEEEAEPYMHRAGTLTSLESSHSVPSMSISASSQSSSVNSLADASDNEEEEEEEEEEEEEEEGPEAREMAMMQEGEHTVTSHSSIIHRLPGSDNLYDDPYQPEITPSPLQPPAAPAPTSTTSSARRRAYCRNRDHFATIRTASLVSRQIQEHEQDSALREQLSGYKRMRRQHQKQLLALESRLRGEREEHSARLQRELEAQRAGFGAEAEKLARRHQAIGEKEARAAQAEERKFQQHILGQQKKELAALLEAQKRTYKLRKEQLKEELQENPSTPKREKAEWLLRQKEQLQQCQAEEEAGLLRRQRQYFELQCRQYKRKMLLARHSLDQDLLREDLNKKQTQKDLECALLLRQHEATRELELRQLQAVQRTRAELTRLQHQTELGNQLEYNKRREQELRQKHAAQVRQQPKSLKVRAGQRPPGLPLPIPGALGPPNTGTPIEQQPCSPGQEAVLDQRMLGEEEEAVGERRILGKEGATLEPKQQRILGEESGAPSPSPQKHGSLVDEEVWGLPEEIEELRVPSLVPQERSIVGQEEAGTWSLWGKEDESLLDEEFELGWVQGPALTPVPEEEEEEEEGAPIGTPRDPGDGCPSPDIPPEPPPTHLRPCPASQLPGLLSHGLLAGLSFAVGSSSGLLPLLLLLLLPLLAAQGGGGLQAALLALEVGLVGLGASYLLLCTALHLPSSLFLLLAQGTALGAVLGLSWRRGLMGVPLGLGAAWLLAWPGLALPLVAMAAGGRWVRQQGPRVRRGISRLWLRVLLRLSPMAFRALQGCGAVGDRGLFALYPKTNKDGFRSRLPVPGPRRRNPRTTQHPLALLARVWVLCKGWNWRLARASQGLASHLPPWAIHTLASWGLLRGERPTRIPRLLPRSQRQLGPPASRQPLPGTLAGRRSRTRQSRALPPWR
Method in brief: as §1

[10] = calculated from percent inhibition of AX9989 labeling and the screening concentration
[11] = screening concentration 1.0 μM, read-out: Kinase inhibition % at indicated screening concentration: ERK5
[12] = screening concentration 1.0 μM, read-out: Kinase inhibition % at indicated screening concentration: AurA
[13] = screening concentration 1.0 μM, read-out: Kinase inhibition % at indicated screening concentration: ACK
[14] = screening concentration 1.0 μM, read-out: Kinase inhibition % at indicated screening concentration: JAK1
[15] = screening concentration 1.0 μM, read-out: Kinase inhibition % at indicated screening concentration: TAO2

| Structure (SMILES) | Kinase inhibition % at indicated screening concentration: ABL or ARG ([1]; screening concentration 1.0 μM) | Kinase inhibition % at indicated screening concentration: AMPKa1 or AMPKa2 ([2]; screening concentration 1.0 μM) | IC50 [3, 10] [nM] | inhibition at 1 µM [3, 11] [%] | inhibition at 1 µM [4, 12] [%] | inhibition at 1 µM [5, 13] [%] | inhibition at 1 µM [6, 14] [%] | inhibition at 10 µM [7] [%] | Kinase inhibition % at indicated screening concentration: AurB or AurC ([8]; screening concentration 1.0 μM) | inhibition at 1 µM [9, 15] [%] | further results |
| --- | --- | --- | --- | --- | --- | --- | --- | --- | --- | --- | --- |
| CN1C(=O)c2ccccc2N(C)c2cc(N[C@H]3CC[C@H](NS(C)(=O)=O)CC3)ncc21 [Compound 99] | E (E is ≦35%) | E (E is ≦35%) | 101 to 500 | 75 to 90 | ≤ 35 | ≤ 35 | ≤ 35 | 70 to 85 | E (E is ≦35%) | ≤ 35 |  |
| CCOc1cc(C(=O)NC2CCC(O)CC2)ccc1Nc1cc2c(cn1)N(C)C(=O)c1ccccc1N2C (centres unmarked) [Compound 109] | E (E is ≦35%) | E (E is ≦35%) | > 500 | 35 to 50 | ≤ 35 | ≤ 35 | ≤ 35 | < 70 | E (E is ≦35%) | ≤ 35 |  |
| CCOc1cc(C(=O)N2CCCC(N)C2)ccc1Nc1cc2c(cn1)N(C)C(=O)c1occc1N2C (centres unmarked) [Compound 113] |  |  | ≤ 50 |  |  |  |  | > 85 |  |  | Kinase inhibition % at indicated screening concentration: ABL or ARG ([1]; screening concentration 0.1 μM): E (E is ≦35%); Kinase inhibition % at indicated screening concentration: AMPKa1 or AMPKa2 ([2]; screening concentration 0.1 μM): E (E is ≦35%); inhibition at 0.1 µM ([3]; screening concentration 0.1 μM, read-out: Kinase inhibition % at indicated screening concentration: ERK5): > 90%; inhibition at 0.1 µM ([4]; screening concentration 0.1 μM, read-out: Kinase inhibition % at indicated screening concentration: AurA): ≤ 35%; inhibition at 0.1 µM ([5]; screening concentration 0.1 μM, read-out: Kinase inhibition % at indicated screening concentration: ACK): ≤ 35%; inhibition at 0.1 µM ([6]; screening concentration 0.1 μM, read-out: Kinase inhibition % at indicated screening concentration: JAK1): ≤ 35%; Kinase inhibition % at indicated screening concentration: AurB or AurC ([8]; screening concentration 0.1 μM): E (E is ≦35%); inhibition at 0.1 µM ([9]; screening concentration 0.1 μM, read-out: Kinase inhibition % at indicated screening concentration: TAO2): ≤ 35% |

Further lines, with some results ahead:

| Kinase inhibition % at indicated screening concentration: ABL or ARG ([1]; screening concentration 1.0 μM) | Kinase inhibition % at indicated screening concentration: AMPKa1 or AMPKa2 ([2]; screening concentration 1.0 μM) | IC50 [3, 10] [nM] | inhibition at 1 µM [3, 11] [%] | inhibition at 1 µM [4, 12] [%] | inhibition at 1 µM [5, 13] [%] | inhibition at 1 µM [6, 14] [%] | inhibition at 10 µM [7] [%] | Kinase inhibition % at indicated screening concentration: AurB or AurC ([8]; screening concentration 1.0 μM) | inhibition at 1 µM [9, 15] [%] | Structure (SMILES) | further results |
| --- | --- | --- | --- | --- | --- | --- | --- | --- | --- | --- | --- |
| E (E is ≦35%) | E (E is ≦35%) | > 500 | 50 to 75 | ≤ 35 | ≤ 35 | ≤ 35 | < 70 | E (E is ≦35%) | ≤ 35 | CC(=O)NC1CCC(Nc2cc3c(cn2)N(C)C(=O)c2ccccc2N3C)CC1 (centres unmarked) [Compound 98] |  |
|  |  |  |  |  |  |  | < 70 |  |  | CCOc1cc(C(=O)N2CCOCC2)ccc1Nc1cc2c(cn1)N(C)C(=O)c1ccccc1O2 [Compound T81, 3-((2-ethoxy-4-(morpholine-4-carbonyl)phenyl)amino)-11-methylbenzo[f]pyrido[4,3-b][1,4]oxazepin-10(11H)-one] | ABL or ARG Inhibition % at indicated screening concentration ([1]; screening concentration 1 μM): E (E is ≦35%); AMPKa1 or AMPKa2 Inhibition % at indicated screening concentration ([2]; screening concentration 1 μM): E (E is ≦35%); IC50 ([3]; calculated from percent inhibition and screening concentration, AX9989 probe): 101 to 500 nM; inhibition at 1 µM ([3]; screening concentration 1 μM, read-out: ERK5 Inhibition % at indicated screening concentration): 75 to 90%; inhibition at 1 µM ([4]; screening concentration 1 μM, read-out: AurA Inhibition % at indicated screening concentration): ≤ 35%; inhibition at 1 µM ([5]; screening concentration 1 μM, read-out: ACK Inhibition % at indicated screening concentration): ≤ 35%; inhibition at 1 µM ([6]; screening concentration 1 μM, read-out: JAK1 Inhibition % at indicated screening concentration): ≤ 35%; AurB or AurC Inhibition % at indicated screening concentration ([8]; screening concentration 1 μM): E (E is ≦35%); inhibition at 1 µM ([9]; screening concentration 1 μM, read-out: TAO2 Inhibition % at indicated screening concentration): ≤ 35% |
